Reference: paper PMC11785791, “Cryo-EM structure of the calcium-sensing receptor complexed with the kokumi substance γ-glutamyl-valyl-glycine” (Scientific Reports, 2025)
Residue numbers refer to the chain shown, from its start. *1 amine or outer side, *2 acyl side, *3 side chain or, on linkers, in order; H or OH if unused. Where a SMILES comes first, the peptide text is derived from it. γGlu = O=C(O)[CH](CCC(=O)[*:2])N[*:1]

Experiments:
human CaSR F42S mutant = target: T1, human CaSR F42S mutant (Homo sapiens, UniProt P41180, F42S); assay: Calcium mobilization assay, CaSR F42S mutant; type: cell-based; conditions: for Response in calcium mobilization assay: in words
T1 construct: expressed in transfected cells; host or cells: PEAKrapid cells (ATCC), pcDNA 3.1, transient transfection
T1 sequence (P41180 20-1078 F42S): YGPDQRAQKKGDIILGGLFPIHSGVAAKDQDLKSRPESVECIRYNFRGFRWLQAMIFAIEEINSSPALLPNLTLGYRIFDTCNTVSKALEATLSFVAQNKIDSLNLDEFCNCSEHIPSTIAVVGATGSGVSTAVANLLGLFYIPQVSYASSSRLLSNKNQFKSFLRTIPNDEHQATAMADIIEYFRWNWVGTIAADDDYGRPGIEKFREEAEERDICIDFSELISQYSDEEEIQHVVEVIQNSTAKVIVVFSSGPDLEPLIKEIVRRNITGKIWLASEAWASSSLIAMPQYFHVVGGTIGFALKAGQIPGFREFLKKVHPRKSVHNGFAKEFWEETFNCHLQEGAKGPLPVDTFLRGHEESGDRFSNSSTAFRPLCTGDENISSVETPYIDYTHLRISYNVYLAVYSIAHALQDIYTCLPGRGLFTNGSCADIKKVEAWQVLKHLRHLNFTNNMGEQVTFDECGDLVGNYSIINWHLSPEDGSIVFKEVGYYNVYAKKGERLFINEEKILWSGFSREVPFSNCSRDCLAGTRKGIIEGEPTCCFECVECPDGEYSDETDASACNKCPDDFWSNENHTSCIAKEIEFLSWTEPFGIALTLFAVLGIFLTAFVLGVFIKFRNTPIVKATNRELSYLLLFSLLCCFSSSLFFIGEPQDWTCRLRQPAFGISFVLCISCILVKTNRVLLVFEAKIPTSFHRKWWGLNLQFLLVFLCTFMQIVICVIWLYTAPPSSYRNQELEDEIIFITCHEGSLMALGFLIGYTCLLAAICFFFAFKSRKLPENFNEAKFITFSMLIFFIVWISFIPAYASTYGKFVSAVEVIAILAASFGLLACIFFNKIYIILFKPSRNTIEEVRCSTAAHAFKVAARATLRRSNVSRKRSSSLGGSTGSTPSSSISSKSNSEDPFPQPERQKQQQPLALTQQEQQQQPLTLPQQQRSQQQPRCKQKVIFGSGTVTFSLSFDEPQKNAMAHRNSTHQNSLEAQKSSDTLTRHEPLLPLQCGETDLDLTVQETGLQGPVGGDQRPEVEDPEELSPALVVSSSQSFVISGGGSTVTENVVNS
Experimental: (§1) The CaSR receptor responsiveness was assessed by using PEAK^rapid cells (ATCC, Manassas, VA, USA) transiently transfected with the receptor DNA by the method reported by Kitajima et al.[6]. Briefly, human CaSR or its mutant cDNA with a signal sequence (MAFYSCCWVLLALTWHTSA) followed by FLAG-tag (DYKDDDDK) were inserted into pcDNA 3.1 expression vectors in Opti-MEM I medium (Thermo Fisher Scientific), mixed with FuGENE 6 (Roche), and poured onto PEAK^rapid cells grown at a submaximal concentration. After culturing for 24 h in 96-well plates, the cells were incubated with 5 µM Calcium-5 solution (Calcium-5 assay kit, Molecular Devices) for 45–60 min, and measurements were performed using a plate reader (FDSS/µCELL, Hamamatsu Photonics, Shizuoka, Japan) and its associated software. The activation of CaSR expressed in cells increases the intracellular Ca^2+ concentration, which is measured using a Ca^2+-sensitive dye. The binding of Ca^2+ to the Ca^2+-sensitive dye increases dye fluorescence, with excitation at 485 nm and emission at 525 nm. Test compounds were dissolved and administered in the assay buffer (146 mM NaCl, 1 mM MgSO4, 20 mM HEPES, 1 mM CaCl2, 2.5 mM probenecid, and 1.39 mM glucose, pH 7.4). Transiently transfected cells were challenged with compounds and compared with the vehicle alone and/or mock-transfected cells. The concentration dependence of the fluorescence intensity (influx of Ca^2+) was analyzed using the plate reader at 1 s intervals for 180 s. For the dose–response curve calculations, peak fluorescence responses after the addition of compounds were corrected for, normalized to the background fluorescence (ΔF/F = –F − F0)/F0), and baseline noise was subtracted. Dose–response curves were calculated by non-linear regression using GraphPad PRISM 8.0.

human CaSR R66A mutant = target: T2, human CaSR R66A mutant (Homo sapiens, UniProt P41180, R66A); assay: Calcium mobilization assay, CaSR R66A mutant; type: cell-based; conditions: for EC50: mean ± s.e.m., n = 3; for Response in calcium mobilization assay: in words
T2 construct: (N); expressed in transfected cells; host or cells: PEAKrapid cells (ATCC), pcDNA 3.1, transient transfection
T2 sequence (P41180 20-1078 R66A): T1 sequence (P41180 20-1078 F42S) with S23F, R47A
Experimental: as §1

[Ca+2].[Cl-].[Cl-] [CaCl2]
Emax (% of wild-type values) (human CaSR F42S mutant): 87.0 % of WT
EC50 (human CaSR F42S mutant; mean ± s.e.m., n = 3): 6.6 ± 0.3 mM
Emax (% of wild-type values) (human CaSR R66A mutant; R66A mutant): 107.2 % of WT
EC50 (human CaSR R66A mutant; R66A mutant): 3.87 ± 0.5 mM

N[C@@H](Cc1ccc(O)cc1)C(=O)O [L-Tyr, L-tyrosine]
Response in calcium mobilization assay (human CaSR F42S mutant): no response
Response in calcium mobilization assay (human CaSR R66A mutant; R66A mutant): no response

CC(C)[C@H](NC(=O)CC[C@H](N)C(=O)O)C(=O)O [γ-EV, γ-glutamyl-valine]
Response in calcium mobilization assay (human CaSR F42S mutant): no response
Response in calcium mobilization assay (human CaSR R66A mutant; R66A mutant): no response

CC(C)C(NC(=O)CCC(N)C(=O)O)C(=O)NCC(=O)O (stereo not drawn) [γ-EVG, γ-glutamyl-valyl-glycine] (γGlu-Val-Gly-OH; configuration not given here)
Response in calcium mobilization assay (human CaSR R66A mutant; R66A mutant): reduced its function compared to the wild-type
EC50 (human CaSR R66A mutant; R66A mutant, ND not detected): 0.0189 ± 0.0005 mM
Emax (human CaSR R66A mutant; read-out: Emax (% of wild-type values)): 53.6%
